From article PMC5845353, “The selective cathepsin K inhibitor MIV-711 attenuates joint pathology in experimental animal models of osteoarthritis” (Journal of Translational Medicine, 2018)
Marks after values point to notes of the source that are not given here.

Tested on: rabbits subjected to anterior cruciate ligament transection (ACLT)
Assay: Rabbit ACLT study, µCT of trabecular bone
Assay type: in vivo
From the text: The animals were acquired following review and approval by the Institutional Animal Care and Use Committee (IACUC) at Numira (Salt Lake City, UT). The protocol was also reviewed and approved by the IACUC at Ibex Preclinical Research Inc. (Logan, UT). Male, New Zealand White rabbits (n = 32) were purchased from the Western Oregon Rabbit Co. (Philomath, OR). The animals were approximately 9 months old, weighed 3.7–4.5 kg at the start of the experiment and were randomized into four treatment groups based on body weight.
Pre-operative butorphanol (0.5–1.0 mg/kg, i.m.) for analgesia and glycopyrrolate (~ 0.1 mg/kg i.m.) were administered up to 15 min prior to induction. Anesthesia was induced by a mixture of ketamine (20–40 mg/kg, i.m.) and xylazine (5–10 mg/kg, i.m.), followed by placement of an endotracheal tube. General anesthesia was maintained with isoflurane. Perioperative cefazolin (40 mg/kg, i.v.) was administered, and […] (0.2 mg/kg, i.v.) was administered to reverse the effects of xylazine after endotracheal intubation was complete. A fentanyl patch (25 µg/h) was placed on a clipped area of the skin to provide post-operative analgesia. An incision of 1.5–2.5 cm was made in the skin over the medial side of the right knee under aseptic conditions. The patella was dislocated laterally and the knee placed in full flexion. The anterior cruciate ligament (ACL) was visualized and transected with an appropriate blade. In sham animals, the ACL was visualized but not transected. The joint was irrigated with sterile saline and closed. The muscle and skin were closed with suture and/or surgical glue. Butorphanol (0.5–1 mg/kg, i.m.) was administered after extubation to provide supplemental analgesia. The animals were then individually housed in stainless steel or plastic cages.
Starting 1 week after sham operation or ACLT, animals were dosed daily for 7 weeks by oral gavage with either MIV-711 (synthesized by Medivir and given as a suspension in 1% Methocel A4C in water) or vehicle (1% Methocel A4C in water) at a dose volume of 4 mL/kg. The four treatment groups (n = 7 in each group) were: (1) sham + vehicle; (2) ACLT + vehicle; (3) ACLT + MIV-711, 30 µmol/kg (low dose) and (4) ACLT + MIV-711, 100 µmol/kg (high dose).
Femora and tibias from all animals were subjected to µCT scanning without and with contrast reagent, to visualize bone and cartilage, respectively. Samples were scanned on a high-resolution, volumetric µCT scanner (μCT40, ScanCo Medical, Zurich, CH). The image data was acquired with the following parameters: 36 μm isotropic voxel resolution at 300 ms exposure time, 2000 views and 1 frame per view. Each sample was scanned twice, once for acquiring bone data and once for soft tissue data. After the bone scans, the knees were stained using hexabrix for contrast-enhanced imaging of the cartilage. The µCT-generated DICOM files were used to analyze the samples and to create volume renderings of the regions of interest (ROI). The raw data files were converted into a file format compatible with the segmentation software VHLab (Numira). VHLab was used for segmenting out the regions of interest (osteophyte, cartilage, and subchondral bone) for the femur and tibia of each sample. A region spanning 9 mm of the articulating surface of the femur and 6.5 mm of the tibia was selected for segmenting out the cartilage and subchondral bone in the anterior–posterior direction. After the segmentation process, the voxel count associated with each of the regions of interest was calculated using VHLab. The voxel count was then multiplied by the cubic voxel resolution to obtain volume measurements for the different ROI. Cartilage thickness was calculated using SCIRun (Scientific Computing and Imaging Institute, University of Utah). The distance from the bone to the outer surface of the articulating cartilage was calculated. An image was generated that translates the distances into a color map for viewing the thickness along the length of the cartilage. […]

[1] = Femur Lateral, high dose 100 µmol/kg
[2] = Femur Lateral, low dose 30 µmol/kg
[3] = Femur Medial, high dose 100 µmol/kg
[4] = Femur Medial, low dose 30 µmol/kg
[5] = Tibia Lateral, high dose 100 µmol/kg
[6] = Tibia Lateral, low dose 30 µmol/kg
[7] = Tibia Medial, high dose 100 µmol/kg
[8] = Tibia Medial, low dose 30 µmol/kg

SMILES: C#C[C@@H]1CN(C(=O)[C@H](CC(C)C)NC(=O)c2ccc(-c3nc(N4CCN(C)CC4)sc3F)cc2)[C@@H]2C(=O)CO[C@H]12 [MIV-711]
- Bone surface [1]: 101.7 ± 2.9 mm^2
- Bone surface/volume [1]: 18.7 ± 0.8 1/mm
- Connective density [1]: 11.90 ± 1.51 1/mm^3
- Structure model index [1]: 0.63 ± 0.11
- Tissue mineral density [1]: 673.6 ± 7.0 mgHA/ccm
- Trabecular bone volume [1]: 5.5 ± 0.2 mm^3
- Trabecular number [1]: 2.55 ± 0.10 1/mm
- Trabecular separation [1]: 0.40 ± 0.02 mm
- Trabecular thickness [1]: 0.19 ± 0.01 mm
- Bone surface [2]: 101.2 ± 4.3 mm^2
- Bone surface/volume [2]: 19.9 ± 1.3 1/mm
- Connective density [2]: 13.51 ± 1.54 1/mm^3
- Structure model index [2]: 0.73 ± 0.15
- Tissue mineral density [2]: 669.6 ± 8.4 mgHA/ccm
- Trabecular bone volume [2]: 5.3 ± 0.5 mm^3
- Trabecular number [2]: 2.58 ± 0.16 1/mm
- Trabecular separation [2]: 0.40 ± 0.03 mm
- Trabecular thickness [2]: 0.18 ± 0.01 mm
- Bone surface [3]: 105.2 ± 1.3 mm^2
- Bone surface/volume [3]: 15.1 ± 1.0 1/mm
- Connective density [3]: 9.14 ± 0.63 1/mm^3
- Structure model index [3]: 0.40 ± 0.07
- Tissue mineral density [3]: 699.1 ± 10.3 mgHA/ccm
- Trabecular bone volume [3]: 7.2 ± 0.5 mm^3
- Trabecular number [3]: 3.71 ± 0.68 1/mm
- Trabecular separation [3]: 0.30 ± 0.03 mm
- Trabecular thickness [3]: 0.22 ± 0.02 mm
- Bone surface [4]: 105.6 ± 3.8 mm^2
- Bone surface/volume [4]: 16.0 ± 1.6 1/mm
- Connective density [4]: 11.42 ± 1.61 1/mm^3
- Structure model index [4]: 0.48 ± 0.07
- Tissue mineral density [4]: 698.4 ± 15.7 mgHA/ccm
- Trabecular bone volume [4]: 7.0 ± 0.7 mm^3
- Trabecular number [4]: 3.02 ± 0.20 1/mm
- Trabecular separation [4]: 0.34 ± 0.02 mm
- Trabecular thickness [4]: 0.22 ± 0.03 mm
- Bone surface [5]: 152.7 ± 4.1 mm^2
- Bone surface/volume [5]: 14.9 ± 0.5 1/mm
- Connective density [5]: 16.25 ± 2.01 1/mm^3
- Structure model index [5]: 0.42 ± 0.11
- Tissue mineral density [5]: 707.0 ± 6.6 mgHA/ccm
- Trabecular bone volume [5]: 10.3 ± 0.4* mm^3
- Trabecular number [5]: 3.01 ± 0.16 1/mm
- Trabecular separation [5]: 0.34 ± 0.02 mm
- Trabecular thickness [5]: 0.22 ± 0.01 mm
- Bone surface [6]: 153.6 ± 4.1 mm^2
- Bone surface/volume [6]: 16.0 ± 1.2 1/mm
- Connective density [6]: 16.55 ± 1.95 1/mm^3
- Structure model index [6]: 0.51 ± 0.12
- Tissue mineral density [6]: 700.8 ± 10.6 mgHA/ccm
- Trabecular bone volume [6]: 9.9 ± 0.7 mm^3
- Trabecular number [6]: 2.96 ± 0.15 1/mm
- Trabecular separation [6]: 0.34 ± 0.02 mm
- Trabecular thickness [6]: 0.21 ± 0.01 mm
- Bone surface [7]: 124.9 ± 4.6 mm^2
- Bone surface/volume [7]: 13.2 ± 0.2 1/mm
- Connective density [7]: 8.47 ± 0.69 1/mm^3
- Structure model index [7]: 0.41 ± 0.10
- Tissue mineral density [7]: 726.9 ± 5.5 mgHA/ccm
- Trabecular bone volume [7]: 9.5 ± 0.5 mm^3
- Trabecular number [7]: 2.09 ± 0.15 1/mm
- Trabecular separation [7]: 0.50 ± 0.04 mm
- Trabecular thickness [7]: 0.26 ± 0.00 mm
- Bone surface [8]: 124.9 ± 3.3 mm^2
- Bone surface/volume [8]: 14.6 ± 1.2 1/mm
- Connective density [8]: 9.20 ± 1.08 1/mm^3
- Structure model index [8]: 0.52 ± 0.16
- Tissue mineral density [8]: 714.1 ± 13.1 mgHA/ccm
- Trabecular bone volume [8]: 8.9 ± 0.7 mm^3
- Trabecular number [8]: 2.05 ± 0.08 1/mm
- Trabecular separation [8]: 0.49 ± 0.02 mm
- Trabecular thickness [8]: 0.25 ± 0.02 mm
- trabecular bone volume, lateral tibia, difference vs. sham (low dose 30 µmol/kg): -8%
